Seven compounds from article PMC3904387 (ACS medicinal chemistry letters, 2013) can be followed below.

Structures are written as SMILES.

For data set [1], the system named is PR8 H1N1 infected MDCK cells. The data set is classed as cell-based.
The subject of data set [2] is Madin-Darby canine kidney (MDCK) cells.

On to `O=C(Cc1ccccc1Cl)c1ccc(O)c(O)c1O` [compound 14], for which the “antiviral activity (in words)” value in data set [1] is “neither cytotoxic nor active against virally infected cells”. Besides, in data set [2], the “cytotoxicity (in words)” value is listed as “neither cytotoxic”. Turning to `O=C(N/N=C\c1cccc(Cl)c1Cl)c1ccc(O)c(O)c1` [compound 6], the “cytotoxicity (in words)” value in data set [2] is recorded as “cytotoxic”. Regarding `O=C1CC2(CCCCC2)Oc2c1ccc(O)c2O` [compound 11], the “antiviral activity (in words)” value in data set [1] was “lack cytotoxicity and antiviral activity”. Besides, in data set [2], the “cytotoxicity (in words)” value is given as “lack cytotoxicity”. Take `Cc1ccccc1/C=N\NC(=O)c1ccc(O)c(O)c1` [compound 7]: in data set [1], the “antiviral activity (in words)” value is “lacking cytotoxicity and antiviral activity”. Besides, the “cytotoxicity (in words)” value in data set [2] is recorded as “lacking cytotoxicity”.

For the compound `C/C(=N/NC(=O)c1ccc(O)c(O)c1)c1ccc(C)cc1` [compound 9], in data set [1], the “antiviral activity (in words)” value is reported as “lacks antiviral activity”. For the same compound, in data set [2], the “cytotoxicity (in words)” value was “lacks antiviral activity and cytotoxicity”. On to `COc1ccccc1N1CCN(/N=C/c2ccc(O)c(O)c2)CC1` [compound 8], for which the “cytotoxicity (in words)” value in data set [2] is listed as “cytotoxic”. For `CC(=O)N1CCC2(CC1)CC(=O)c1ccc(O)c(O)c1O2` [compound 12], the “antiviral activity (in words)” value in data set [1] is “lack cytotoxicity and antiviral activity”. Besides, the “cytotoxicity (in words)” value in data set [2] is “lack cytotoxicity”.
